# Reference: ChEMBL document CHEMBL1151019, “Kinetics of thermal [1,7a]-sigmatropic shift of hexafluoro vitamin D3 and vitamin D3 derivatives. Evaluation of conformations of the A ring affected by 1-OH and 3-OH groups” (Bioorg Med Chem Lett, 1996)
# Assay: Kinetic constant for the transformation of vitamin D to Previtamin D (kl / k-1)
row,SMILES,Keq
1,C=C1CC[C@H](O)C/C1=C/C=C1\CCC[C@]2(C)[C@@H]([C@H](C)CCCC(C)C)CC[C@@H]12,3.71
2,C=C1CCCC/C1=C/C=C1\CCC[C@]2(C)C([C@H](C)CCCC(C)C)CC[C@@H]12 (stereo not given in full),3.06
3,C=C1/C(=C\C=C2/CCC[C@]3(C)[C@@H]([C@H](C)CCCC(C)C)CC[C@@H]23)C[C@@H](O)C[C@@H]1O,5.18
4,C=C1/C(=C\C=C2/CCC[C@]3(C)C([C@H](C)CCCC(O)(C(F)(F)F)C(F)(F)F)CC[C@@H]23)C[C@@H](O)C[C@@H]1O (stereo not given in full),5.1
5,C=C1/C(=C\C=C2/CCC[C@]3(C)C([C@H](C)C[C@H](O)CC(O)(C(F)(F)F)C(F)(F)F)CC[C@@H]23)C[C@@H](O)C[C@@H]1O (stereo not given in full),5.46
